≈ marks a conversion by molar mass, not a printed value.
How the values were obtained:
[1] = test system: CETresistant E. coli(3), and Kl. pneumoniae(2); assay: MIC, two-fold serial agar dilution, Mueller-Hinton agar (geometric mean, group Gn-Ib); format: cell-based; details: Escherichia coli, read-out: Geometric Mean of MIC, Gn-Ib
Protocol: (§1) For a primary evaluation of some representative compounds of this invention, minimum inhibitory concentrations (MIC's) were determined against 32 strains of test organisms by two-fold serial agar dilution method in Mueller-Hinton agar.
GnIb: CETresistant E. coli(3), and Kl. pneumoniae(2)

B. subtilis PCI 219 = details: Bacillus subtilis, PCI219, 18 h, pH 7.2
M. luteus 1001 = details: Micrococcus luteus, 1001, 18 h, pH 7.2
S. marcescens IPM-15 = details: Serratia marcescens, IPM15, 18 h, pH 7.2
P. aeruginosa KKA 19 = details: Pseudomonas aeruginosa, KKA19, 18 h, pH 7.2
E. coli Juhl = assay: MIC against the infecting organism (Table 2); details: Escherichia coli
P. acnes A 21933 = assay: In vitro activity against anaerobes (MIC); format: cell-based; details: Cutibacterium acnes, A21933, Gp
B. fragilis A 22693 = assay: In vitro activity against anaerobes (MIC), two-fold serial agar dilution, GAM agar; format: cell-based; details: Bacteroides fragilis, A22693, Gn, Beta-Lactamase(-)
P. cepacia No. 651 = details: Burkholderia cepacia, NO.651, 18 h, pH 7.2
C. terrigena IFO 12685 = details: 18 h, pH 7.2
P. aeruginosa 9843A = assay: MIC against the infecting organism (Table 2); details: Pseudomonas aeruginosa
B. fragilis A 22695 = assay: In vitro activity against anaerobes (MIC), two-fold serial agar dilution, GAM agar; format: cell-based; details: Bacteroides fragilis, A22695, Gn, Beta-Lactamase(+)
B. fragilis A 22053 = assay: as above; format: cell-based; details: Bacteroides fragilis, A22053, Gn, Beta-Lactamase(-)
M. morgani 1510 = details: 18 h, pH 7.2
S. epidermidis 11-1168 = format: cell-based; details: Staphylococcus epidermidis, 111168, pH 7.2, 32° C. 18 hr, 10^6 cells/ml
S. aureus Smith [2] = assay: MIC against the infecting organism (Table 2); details: Staphylococcus aureus
[3] = test system: M. morganii(1), Ent. cloacae(2), and Ser. marcescens(2); assay: MIC, two-fold serial agar dilution, Mueller-Hinton agar (geometric mean, group Gn-II); format: cell-based; details: 5 strains
Protocol: as §1
GnII: M. morganii(1), Ent. cloacae(2), and Ser. marcescens(2)

S. aureus IPM-24 (MRSA) = details: Staphylococcus aureus, 18 h, pH 7.2
S. aureus Smith [4] = details: Staphylococcus aureus, in Mus musculus, im, read-out: PD50
B. fragilis A 21916 = assay: In vitro activity against anaerobes (MIC), two-fold serial agar dilution, GAM agar; format: cell-based; details: Bacteroides fragilis, A21916, Gn, Beta-Lactamase(-)
S. marcescens IPM-16 = details: Serratia marcescens, IPM16, 18 h, pH 7.2
K. pneumoniae PCI 602 = details: Klebsiella pneumoniae, PCI602, 18 h, pH 7.2

Q: For CO/N=C(\C(=O)NC1C(=O)N2C(C(=O)O)=C(/C=C/COC(=O)c3ccc(O)c(O)c3)CS[C@H]12)c1csc(N)n1 (stereo partly shown) [Ia, 7-[(Z)-2-(2-Aminothiazol-4-yl)-2-methoxyiminoacetamido]-3-[(E)-3-(3,4-dihydroxybenzoyloxy)-1-propen-1-yl]-3-cephem-4-carboxylic acid], which MIC [1] is on record?
A: 0.029 µg/mL (≈ 0.0504 µM)

Q: And the MIC (B. subtilis PCI 219)?
A: 0.2 µg/mL (≈ 0.347 µM)

Q: And the MIC (M. luteus 1001)?
A: 0.1 µg/mL (≈ 0.174 µM)

Q: And the MIC (S. marcescens IPM-15)?
A: > 100 µg/mL

Q: What about the MIC (P. aeruginosa KKA 19) of the same compound?
A: 50 µg/mL (≈ 86.9 µM)

Q: And the MIC (E. coli Juhl)?
A: 0.1 µg/mL (≈ 0.174 µM)

Q: And the MIC (P. acnes A 21933)?
A: 0.4 µg/mL (≈ 0.695 µM)

Q: What about the MIC (B. fragilis A 22693) of the same compound?
A: 0.8 µg/mL (≈ 1.39 µM)

Q: And the MIC (P. cepacia No. 651)?
A: 12.5 µg/mL (≈ 21.7 µM)

Q: What about the MIC (C. terrigena IFO 12685) of the same compound?
A: 0.8 µg/mL (≈ 1.39 µM)

Q: What about the MIC (P. aeruginosa 9843A) of the same compound?
A: 3.1 µg/mL (≈ 5.39 µM)

Q: And the MIC (B. fragilis A 22695)?
A: 12.5 µg/mL (≈ 21.7 µM)

Q: What about the MIC (B. fragilis A 22053) of the same compound?
A: 0.8 µg/mL (≈ 1.39 µM)

Q: And the MIC (M. morgani 1510)?
A: 3.1 µg/mL (≈ 5.39 µM)

Q: What about the MIC (S. epidermidis 11-1168) of the same compound?
A: 3.1 µg/mL (≈ 5.39 µM)

Q: And the MIC (S. aureus Smith [2])?
A: 1.6 µg/mL (≈ 2.78 µM)

Q: What about the MIC [3] of the same compound?
A: 0.46 µg/mL (≈ 0.799 µM)

Q: And the MIC (S. aureus IPM-24 (MRSA))?
A: > 100 µg/mL

Q: What about the ED50 (S. aureus Smith [4]) of the same compound?
A: 0.4 mg/kg

Q: And the MIC (B. fragilis A 21916)?
A: 1.6 µg/mL (≈ 2.78 µM)

Q: And the MIC (S. marcescens IPM-16)?
A: > 100 µg/mL

Q: What about the MIC (K. pneumoniae PCI 602) of the same compound?
A: < 0.0063 µg/mL

Reference: patent US5143911A, “Antibiotic C-3 di-hydroxyphenyl substituted cephalosporin compounds, compositions and method of use thereof” (Bristol-Myers Squibb Company, priority 1990, dated 1992)
